Measurements: US12662451B2, “Chemical compounds and uses thereof” (GLAXOSMITHKLINE INTELLECTUAL PROPERTY (NO.4) LIMITED, priority 2023, dated 2026)
Structures can show the parent of a compound that is named as a salt.

biological target: T1, recombinant full-length WRN protein (1-1432) (Homo sapiens, UniProt Q14191); assay: WRN unwinding activity, fluorogenic 384-well assay (Example A); format: biochemical; settings: WRN unwinding activity, 4 hr; Table 2; read-out: 4 hr UNW pIC50 (converted)
T1 construct: recombinant full-length WRN protein (1-1432)
T1 sequence (Q14191 whole entry): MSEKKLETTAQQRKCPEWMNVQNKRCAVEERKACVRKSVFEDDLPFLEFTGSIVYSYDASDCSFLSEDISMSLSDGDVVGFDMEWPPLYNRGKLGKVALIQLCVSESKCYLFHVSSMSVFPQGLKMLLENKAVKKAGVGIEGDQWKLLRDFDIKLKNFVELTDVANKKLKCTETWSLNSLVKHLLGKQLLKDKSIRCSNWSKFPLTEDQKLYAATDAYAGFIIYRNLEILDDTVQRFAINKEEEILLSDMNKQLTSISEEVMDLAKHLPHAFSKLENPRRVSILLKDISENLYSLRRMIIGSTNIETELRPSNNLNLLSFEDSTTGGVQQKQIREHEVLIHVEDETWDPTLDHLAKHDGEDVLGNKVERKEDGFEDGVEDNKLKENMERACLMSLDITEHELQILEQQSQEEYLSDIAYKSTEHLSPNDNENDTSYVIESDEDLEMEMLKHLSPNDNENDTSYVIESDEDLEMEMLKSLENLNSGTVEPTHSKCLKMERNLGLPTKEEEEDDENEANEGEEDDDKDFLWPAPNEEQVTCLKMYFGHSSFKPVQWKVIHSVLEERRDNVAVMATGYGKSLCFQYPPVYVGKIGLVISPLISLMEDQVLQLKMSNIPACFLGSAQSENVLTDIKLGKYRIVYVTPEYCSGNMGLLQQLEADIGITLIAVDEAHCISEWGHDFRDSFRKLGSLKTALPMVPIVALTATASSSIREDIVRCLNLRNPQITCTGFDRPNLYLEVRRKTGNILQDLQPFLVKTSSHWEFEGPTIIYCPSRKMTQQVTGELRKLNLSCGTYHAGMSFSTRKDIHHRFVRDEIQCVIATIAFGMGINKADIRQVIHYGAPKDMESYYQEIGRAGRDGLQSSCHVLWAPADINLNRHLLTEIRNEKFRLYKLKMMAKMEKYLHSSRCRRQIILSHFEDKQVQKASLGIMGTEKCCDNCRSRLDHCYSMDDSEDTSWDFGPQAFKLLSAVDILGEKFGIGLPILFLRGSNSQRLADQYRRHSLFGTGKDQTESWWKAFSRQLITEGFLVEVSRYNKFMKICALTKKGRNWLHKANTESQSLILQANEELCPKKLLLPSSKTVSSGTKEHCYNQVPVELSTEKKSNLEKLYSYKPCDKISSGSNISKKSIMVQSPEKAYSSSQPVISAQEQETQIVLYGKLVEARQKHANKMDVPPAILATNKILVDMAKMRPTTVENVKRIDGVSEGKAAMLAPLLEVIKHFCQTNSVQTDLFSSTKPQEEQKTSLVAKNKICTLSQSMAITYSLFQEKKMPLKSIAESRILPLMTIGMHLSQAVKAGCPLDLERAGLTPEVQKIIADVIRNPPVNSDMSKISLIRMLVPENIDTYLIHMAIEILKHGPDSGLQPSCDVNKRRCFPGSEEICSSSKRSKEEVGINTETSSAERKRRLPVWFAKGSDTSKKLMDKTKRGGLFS
Method in brief: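 200 pM enzyme (2× stock) preincubated with compound 4 h at ambient temperature, then 200 μM ATP and 12 nM quenched TAMRA-labelled dsDNA (2× stocks) added for 60 min; EDTA-quenched. Buffer 25 mM Tris pH 8.0, 5 mM NaCl, 2 mM MgCl2. Fluorescence at 525/598 nm; pIC50 from four-parameter fit.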

Row | IC50 | Structure (SMILES)
1 | 2000 nM | COC(=O)[C@H]1C[C@H]1c1ccc([C@H]2CCC[C@@H](C(=O)Nc3ccc(C(F)(F)F)cc3F)[C@@H]2C(=O)O)cc1 (racemic) [Example 67, 1:1 Mixture of (1R,2R,6S)-2-((2-fluoro-4-(trifluoromethyl)phenyl)carbamoyl)-6-(4-((1R,2S)-2-(methoxycarbonyl)cyclopropyl)phenyl)cyclohexane-1-carboxylic acid AND (1R,2R,6S)-2-((2-fluoro-4-(trifluoromethyl)phenyl)carbamoyl)-6-(4-((1S,2S)-2-(methoxycarbonyl)cyclopropyl)phenyl)cyclohexane-1-carboxylic acid]
2 | 10 nM | Cc1cc(-c2ccc([C@H]3CCC[C@@H](C(=O)Nc4ccc(C(F)(F)F)cc4F)[C@@H]3C(=O)O)cc2)cs1 [Example 47, (1R,2R,6S)-2-((2-fluoro-4-(trifluoromethyl)phenyl)carbamoyl)-6-(4-(5-methylthiophen-3-yl)phenyl)cyclohexane-1-carboxylic acid]
3 | 1000 nM | N#Cc1ccncc1-c1ccc(C2CCCC(C(=O)Nc3ccc(C(F)(F)F)cc3F)[C@@H]2C(=O)O)cc1 (stereo in doubt) [Example 49, (1R,2R,6S)-2-(4-(4-cyanopyridin-3-yl)phenyl)-6-((2-fluoro-4-(trifluoromethyl)phenyl)carbamoyl)cyclohe xane-1-carboxylic acid]
4 | 398 nM | Cc1nc2cc(S(=O)(=O)N(C)c3ccc([C@H]4CCC[C@@H](C(=O)N[C@@H]5C[C@@H]6CC(F)(F)C[C@@H]6C5)[C@@H]4C(=O)O)cc3)ccc2n1C [Example 191, (1R,2R,6S)-2-(((2s,3aR,6aS)-5,5-difluorooctahydropentalen-2-yl)carbamoyl)-6-(4-((N,1,2-trimethyl-1H-benzo[d]imidazole)-5-sulfonamido)phenyl)cyclohexane-1-carboxylic acid]
5 | 15800 nM | O=C(O)[C@@H]1[C@@H](c2ccc([C@H]3[C@@H]4CNCC[C@@H]43)cc2)CCC[C@H]1C(=O)Nc1ccc(C(F)(F)F)cc1F (racemic) [Example 70]
6 | 3160 nM | Cc1nc2cc(S(=O)(=O)N(C)c3ccc([C@H]4CCC[C@@H](C(=O)NC56CC(C(F)F)(C5)C6)[C@@H]4C(=O)O)cc3)ccc2n1C [Example 186, (1R,2R,6S)-2-((3-(difluoromethyl)bicyclo[1.1.1]pentan-1-yl)carbamoyl)-6-(4-((N,1,2-trimethyl-1H-benzo[d]imidazole)-5-sulfonamido)phenyl)cyclohexane-1-carboxylic acid, formic acid salt]
7 | 25.1 nM | Cc1nc2cc(S(=O)(=O)N(C)c3ccc([C@H]4CCC[C@@H](COc5ccc(C(F)(F)F)cc5)[C@@H]4C(=O)O)cc3)ccc2n1C [Example 205, (1R,2R,6S)-2-((4-(trifluoromethyl)phenoxy)methyl)-6-(4-((N,1,2-trimethyl-1H-benzo[d]imidazole)-5-sulfonamido)phenyl)cyclohexane-1-carboxylic acid]
8 | 2 nM | Cc1nc2cc(S(=O)(=O)N(C)c3ccc([C@H]4C[C@H](N(C)C)C[C@@H](C(=O)Nc5ccc(C(F)(F)F)cc5F)[C@@H]4C(=O)O)cc3)ccc2n1C (relative stereo) [Example 253, rel-(1R,2R,4S,6S)-4-(dimethylamino)-2-((2-fluoro-4-(trifluoromethyl)phenyl)carbamoyl)-6-(4-((N,1,2-trimethyl-1H-benzo[d]imidazole)-5-sulfonamido)phenyl)cyclohexane-1-carboxylic acid]
9 | 6.31 nM | Cc1nc2cc(S(=O)(=O)N(C)c3ccc([C@H]4CCC[C@@H](C(=O)N[C@H]5CC[C@H](C(C)(C)O)CC5)[C@@H]4C(=O)O)cc3)ccc2n1C [Example 183, (1R,2R,6S)-2-(((1r,4R)-4-(2-hydroxypropan-2-yl)cyclohexyl)carbamoyl)-6-(4-((N,1,2-trimethyl-1H-benzo[d]imidazole)-5-sulfonamido)phenyl)cyclohexane-1-carboxylic acid]
10 | 1.58 nM | Cc1nc2cc(S(=O)(=O)N(C)c3ccc([C@H]4CNC[C@@H](C(=O)Nc5ccc(C(F)(F)F)cc5F)[C@@H]4C(=O)O)cc3)ccc2n1C (relative stereo) [Example 308, rel-(3R,4S,5R)-3-((2-fluoro-4-(trifluoromethyl)phenyl)carbamoyl)-5-(4-((N,1,2-trimethyl-1H-benzo[d]imidazole)-5-sulfonamido)phenyl)piperidine-4-carboxylic acid]
11 | 2000 nM | Cc1nc2cc(S(=O)(=O)N(C)c3ccc([C@H]4CCC[C@@H](COc5ccc(C(F)(F)F)cc5)[C@@H]4C(=O)O)cc3)cc([C@@H]3CCCNC3)c2n1C (single isomer, unassigned) [Example 209, hydrochloride]
12 | 200 nM | CC(=O)N1CCc2cc(S(=O)(=O)N(C)c3ccc([C@H]4CCC[C@@H](C(=O)Nc5ccc(C(F)(F)F)cc5F)[C@@H]4C(=O)O)cc3)ccc21 (single isomer, unassigned) [Example 89]
13 | 6310 nM | O=C(O)[C@@H]1[C@@H](c2ccc(N3CCC4(CC3)CO4)cc2)CCC[C@H]1C(=O)Nc1ccc(C(F)(F)F)cc1F (racemic) [Example 228, rac-(1R,2S,6R)-2-(4-(1-oxa-6-azaspiro[2.5]octan-6-yl)phenyl)-6-((2-fluoro-4-(trifluoromethyl)phenyl)carbamoyl)cyclohexane-1-carboxylic acid]
14 | 1.58 nM | CN(c1ccc([C@H]2CCC[C@@H](C(=O)Nc3ccc(C(F)(F)F)cc3F)[C@@H]2C(=O)O)cc1)S(=O)(=O)c1cccc(-c2nnco2)c1 [Example 105, (1R,2R,6S)-2-((2-fluoro-4-(trifluoromethyl)phenyl)carbamoyl)-6-(4-((N-methyl-3-(1,3,4-oxadiazol-2-yl)phenyl)sulfonamido)phenyl)cyclohexane-1-carboxylic acid]
15 | 631 nM | Cc1nc2cc(S(=O)(=O)Nc3ccc([C@H]4CCC[C@@H](C(=O)Nc5ccc(C(F)(F)F)cc5F)[C@@H]4C(=O)O)cc3)ccc2[nH]1 (relative stereo) [Example 258, rel-(1R,2R,6S)-2-((2-fluoro-4-(trifluoromethyl)phenyl)carbamoyl)-6-(4-((2-methyl-1H-benzo[d]imidazole)-5-sulfonamido)phenyl)cyclohexane-1-carboxylic acid]
16 | 1000 nM | O=C(O)[C@@H]1[C@@H](c2ccc(-c3ccccc3CN3CCOCC3)cc2)CCC[C@H]1C(=O)Nc1ccc(C(F)(F)F)cc1F [Example 4, (1R,2R,6S)-2-((2-fluoro-4-(trifluoromethyl)phenyl)carbamoyl)-6-(2′-(morpholinomethyl)-[1,1′-biphenyl]-4-yl)cyclohexane-1-carboxylic acid]
17 | 1000 nM | Cc1cn2nc(-c3ccc([C@H]4CCC[C@@H](C(=O)Nc5ccc(C(F)(F)F)cc5F)[C@@H]4C(=O)O)cc3)ccc2n1 [Example 22, (1R,2R,6S)-2-((2-fluoro-4-(trifluoromethyl)phenyl)carbamoyl)-6-(4-(2-methylimidazo[1,2-b]pyridazin-6-yl)phenyl)cyclohexane-1-carboxylic acid]
18 | 50.1 nM | Cc1nc2cc(S(=O)(=O)N(C)c3ccc([C@H]4C[C@@H](O)C[C@@H](C(=O)Nc5ccc(C(F)(F)F)cc5F)[C@@H]4C(=O)O)cc3)ccc2n1C (single isomer, unassigned) [Example 144]
19 | 6.31 nM | CN(c1ccc([C@H]2CCC[C@@H](C(=O)Nc3ccc(C(F)(F)F)cc3F)[C@@H]2C(=O)O)cc1)S(=O)(=O)c1ccc(C=O)c(O)c1 [Example 276, (1R,2R,6S)-2-((2-fluoro-4-(trifluoromethyl)phenyl)carbamoyl)-6-(4-((4-formyl-3-hydroxy-N-methylphenyl)sulfonamido)phenyl)cyclohexane-1-carboxylic acid]
20 | 1.58 nM | O=C(O)[C@@H]1[C@@H](c2ccc(-c3cccnn3)cc2)CCC[C@H]1C(=O)Nc1ccc(C(F)(F)F)cc1F [Example 38, (1R,2R,6S)-2-((2-fluoro-4-(trifluoromethyl)phenyl)carbamoyl)-6-(4-(pyridazin-3-yl)phenyl)cyclohexane-1-carboxylic acid]
21 | 2510 nM | O=C(O)[C@@H]1[C@@H](c2ccc(CCN3CCNC3=O)cc2)CCC[C@H]1C(=O)Nc1ccc(C(F)(F)F)cc1F [Example 60, (1R,2R,6S)-2-((2-fluoro-4-(trifluoromethyl)phenyl)carbamoyl)-6-(4-(2-(2-oxoimidazolidin-1-yl)ethyl)phenyl)cyclohexane-1-carboxylic acid]
22 | 100 nM | O=C(O)[C@@H]1[C@@H](c2ccc(-c3ccncc3)cc2)CCC[C@H]1C(=O)Nc1ccc(C(F)(F)F)cc1F [Example 7, (1R,2R,6S)-2-((2-fluoro-4-(trifluoromethyl)phenyl)carbamoyl)-6-(4-(pyridin-4-yl)phenyl)cyclohexane-1-carboxylic acid]
23 | 2510 nM | CC(=O)N[C@H]1C[C@H](COc2ccc(C(F)(F)F)cc2)[C@@H](C(=O)O)[C@H](c2ccc(N(C)S(=O)(=O)c3ccc4c(c3)nc(C)n4C)cc2)C1 (single isomer, unassigned) [Example 297]
24 | 10000 nM | COC(=O)c1cncc(-c2ccc([C@H]3CCC[C@@H](C(=O)Nc4ccc(C(F)(F)F)cc4F)[C@@H]3C(=O)O)cc2)c1 [Example 26, (1R,2R,6S)-2-((2-fluoro-4-(trifluoromethyl)phenyl)carbamoyl)-6-(4-(5-(methoxycarbonyl)pyridin-3-yl)phenyl)cyclohexane-1-carboxylic acid]
25 | 3980 nM | O=C(O)[C@@H]1[C@@H](c2ccc(-c3ccc4nnnn4n3)cc2)CCC[C@H]1C(=O)Nc1ccc(C(F)(F)F)cc1F [Example 29, (1R,2R,6S)-2-((2-fluoro-4-(trifluoromethyl)phenyl)carbamoyl)-6-(4-(tetrazolo[1,5-b]pyridazin-6-yl)phenyl) cyclohexane-1-carboxylic acid]
26 | 6310 nM | O=C(O)[C@@H]1[C@@H](c2ccc(-c3ccnc4ccsc34)cc2)CCC[C@H]1C(=O)Nc1ccc(C(F)(F)F)cc1F [Example 44, (1R,2R,6S)-2-((2-fluoro-4-(trifluoromethyl)phenyl)carbamoyl)-6-(4-(thieno[3,2-b]pyridin-7-yl)phenyl)cyclohexane-1-carboxylic acid]
